Measurements as given in patent US20220315621A1, “COMPOSITIONS AND METHODS FOR TREATING CNS DISORDERS” (priority 2017, published 2022).

Molecular target: GABAA receptor (rat brain cortical membranes, [35S]-TBPS binding)
Conditions: not given

For `CCOC[C@@]1(O)CC[C@H]2[C@@H](CC[C@@H]3[C@@H]2CC[C@]2(C)[C@@H](C(=O)Nc4ccccc4)CCC[C@@H]32)C1` [I-B11, (1S,4aS,4bR,6aS,8R,10aS,10bR,12aS)-8-(ethoxymethyl)-8-hydroxy-12a-methyl-N-phenyloctadecahydrochrysene-1-carboxamide], the IC50 was 0.01 to 0.1 µM.

Same assay, conditions: Table I-4; rat brain cortical membranes, 3 nM [35S]-TBPS, in the presence of 5 mM GABA

`COC[C@@]1(O)CC[C@H]2[C@@H](CC[C@@H]3[C@@H]2CC[C@]2(C)[C@@H](C(=O)NCc4ccccc4)CCC[C@@H]32)C1` [Compound I-25, (1S,4aS,4bR,6aS,8R,10aS,10bR,12aS)-N-benzyl-8-hydroxy-8-(methoxymethyl)-12a-methyloctadecahydrochrysene-1-carboxamide] and `COC[C@@]1(O)CC[C@H]2[C@@H](CC[C@@H]3[C@@H]2CC[C@]2(C)[C@@H](C(=O)Nc4ccccc4)CCC[C@@H]32)C1` [Compound I-27, (1S,4aS,4bR,6aS,8R,10aS,10bR,12aS)-8-hydroxy-8-(methoxymethyl)-12a-methyl-N-phenyloctadecahydrochrysene-1-carboxamide] fall in the same range of IC50: 0.01 to 0.1 µM for the first, 0.01 to 0.1 µM for the second.

`CCOC[C@@]1(O)CC[C@H]2[C@@H](CC[C@@H]3[C@@H]2CC[C@]2(C)[C@@H](O)CCC[C@@H]32)C1` [Compound I-39, (1S,4aS,4bR,6aS,8R,10aS,10bR,12aS)-8-(ethoxymethyl)-12a-methyloctadecahydrochrysene-1,8-diol] and `COC[C@@]1(O)CC[C@H]2[C@H](CC[C@@H]3[C@@H]2CC[C@]2(C)[C@@H](O)CCC[C@@H]32)C1` [I-L8, (1S,4aS,4bR,6aR,8R,10aS,10bR,12aS)-8-(methoxymethyl)-12a-methyloctadecahydrochrysene-1,8-diol] fall in the same range of IC50: 1 to 10 µM for the first, 1 to 10 µM for the second.

`CCOC[C@@]1(O)CC[C@H]2[C@H](CC[C@@H]3[C@@H]2CC[C@]2(C)[C@@H](C(=O)N4CCCC[C@@H]4C)CCC[C@@H]32)C1` [I-P9, ((1S,4aS,4bR,6aR,8R,10aS,10bR,12aS)-8-(ethoxymethyl)-8-hydroxy-12a-methyloctadecahydrochrysen-l-yl)((S)-2-methylpiperidin-1-yl)methanone] and `COC[C@@]1(O)CC[C@H]2[C@H](CC[C@@H]3[C@@H]2CC[C@]2(C)[C@@H](C(=O)N4CCCC[C@@H]4C)CCC[C@@H]32)C1` [I-L14, ((1S,4aS,4bR,6aR,8R,10aS,10bR,12aS)-8-hydroxy-8-(methoxymethyl)-12a-methyloctadecahydrochrysen-1-yl)((S)-2-methylpiperidin-1-yl)methanone] fall in the same range of IC50: 0.1 to 1 µM for the first, 0.1 to 1 µM for the second.

`CC(=O)[C@H]1CC[C@H]2[C@@H]3CC[C@@H]4C[C@](C)(O)CC[C@@H]4[C@H]3CC[C@]2(C)C1` [I-R14, 1-((2S,4aS,4bR,6aR,8R,10aS,10bR,12aR)-8-hydroxy-8,12a-dimethyloctadecahydrochrysen-2-yl)ethan-1-one] and `CC(=O)[C@@H]1CCC[C@H]2[C@@H]3CC[C@@H]4C[C@](C)(O)CC[C@@H]4[C@H]3CC[C@]12C` [I-D7a, 1-((1R,4aS,4bR,6aR,8R,10aS,10bR,12aS)-8-hydroxy-8,12a-dimethyloctadecahydrochrysen-1-yl)ethan-1-one] fall in the same range of IC50: 0.1 to 1 µM for the first, 0.1 to 1 µM for the second.

Compared with `C[C@@]1(O)CC[C@H]2[C@H](CC[C@@H]3[C@@H]2CC[C@]2(C)[C@@H](Nc4cccc(F)c4)CCC[C@@H]32)C1` [Compound I-12, (2R,4aS,4bR,6aS,7S,10aS,10bR,12aR)-7-((3-fluorophenyl)amino)-2,6a-dimethyloctadecahydrochrysen-2-ol], `C[C@@]1(O)CC[C@H]2[C@H](CC[C@@H]3[C@@H]2CC[C@]2(C)[C@H](Nc4cccc(C#N)c4)CCC[C@@H]32)C1` [Compound I-10a, 3-(((1R,4aS,4bR,6aR,8R,10aS,10bR,12aS)-8-hydroxy-8,12a-dimethyloctadecahydrochrysen-1-yl)amino)benzonitrile] is higher in IC50: 0.01 to 0.1 µM for the first, 0.1 to 1 µM for the second.

Compared with `CCN(CC)C(=O)[C@H]1CCC[C@H]2[C@@H]3CC[C@@H]4C[C@](C)(O)CC[C@@H]4[C@H]3CC[C@]12C` [Compound I-16, (1S,4aS,4bR,6aR,8R,10aS,10bR,12aS)-N,N-diethyl-8-hydroxy-8,12a-dimethyloctadecahydrochrysene-1-carboxamide], `C[C@H]1CCCCN1C(=O)[C@H]1CCC[C@H]2[C@@H]3CC[C@@H]4C[C@](C)(O)CC[C@@H]4[C@H]3CC[C@]12C` [I-E4, ((1S,4aS,4bR,6aR,8R,10aS,10bR,12aS)-8-hydroxy-8,12a-dimethyloctadecahydrochrysen-1-yl)((S)-2-methylpiperidin-1-yl)methanone] is lower in IC50: 1 to 10 µM for the first, 0.1 to 1 µM for the second. The second is the more potent here.

First: COC[C@@]1(O)CC[C@H]2[C@@H](CC[C@@H]3[C@@H]2CC[C@]2(C)[C@H](Nc4ccc(F)cc4)CCC[C@@H]32)C1 [Compound I-23a, (2R,4aS,4bR,6aS,7R,10aS,10bR,12aS)-7-((4-fluorophenyl)amino)-2-(methoxymethyl)-6a-methyloctadecahydrochrysen-2-ol]
Second: C[C@@]1(O)CC[C@H]2[C@H](CC[C@@H]3[C@@H]2CC[C@]2(C)[C@@H](Nc4ccc(Cl)cc4)CCC[C@@H]32)C1 [Compound I-8, (2R,4aS,4bR,6aS,7S,10aS,10bR,12aR)-7-((4-chlorophenyl)amino)-2,6a-dimethyloctadecahydrochrysen-2-ol]
The IC50 of the first is higher: 1 to 10 µM for the first, 0.01 to 0.1 µM for the second. The second is the more potent here.

Compared with `CN(C[C@H]1CCC[C@H]2[C@@H]3CC[C@@H]4C[C@](C)(O)CC[C@@H]4[C@H]3CC[C@]12C)C(=O)c1ccccc1` [I-C6, N-(((1S,4aS,4bR,6aR,8R,10aS,10bR,12aS)-8-hydroxy-8,12a-dimethyloctadecahydrochrysen-1-yl)methyl)-N-methylbenzamide], `C[C@@]1(O)CC[C@H]2[C@H](CC[C@@H]3[C@@H]2CC[C@]2(C)[C@@H](Nc4cccc(C#N)c4)CCC[C@@H]32)C1` [Compound I-10, 3-(((1S,4aS,4bR,6aR,8R,10aS,10bR,12aS)-8-hydroxy-8,12a-dimethyloctadecahydrochrysen-1-yl)amino)benzonitrile] is lower in IC50: 0.1 to 1 µM for the first, 0.01 to 0.1 µM for the second. The second is the more potent here.

Same assay, conditions: Table I-5; rat brain cortical membranes, 3 nM [35S]-TBPS, in the presence of 5 mM GABA

`COC[C@@]1(O)CC[C@H]2[C@H](CC[C@@H]3[C@@H]2CC[C@]2(C)[C@@H](C(=O)Nc4ccccc4)C[C@@H]32)C1` [I-AC8, (1S,2aS,2bR,4aR,6R,8aS,8bR,10aS)-6-hydroxy-6-(methoxymethyl)-10a-methyl-N-phenylhexadecahydrocyclobuta[a]phenanthrene-1-carboxamide] and `CC(=O)[C@H]1C[C@H]2[C@@H]3CC[C@H]4C[C@](C)(O)CC[C@@H]4[C@H]3CC[C@]12C` [I-AD8, 1-((1S,2aS,2bR,4aS,6R,8aS,8bR,10aS)-6-hydroxy-6,10a-dimethylhexadecahydrocyclobuta[a]phenanthren-1-yl)ethan-1-one] fall in the same range of IC50: 1 to 10 µM for the first, 1 to 10 µM for the second.

`COC[C@@H]1C[C@H]2[C@@H]3CC[C@@H]4C[C@](C)(O)CC[C@@H]4[C@H]3CC[C@]12C` [Compound I-118, (1R,2aS,2bR,4aR,6R,8aS,8bR,10aS)-1-(methoxymethyl)-6,10a-dimethylhexadecahydrocyclobuta[a]phenanthren-6-ol] and `C[C@@]1(O)CC[C@H]2[C@H](CC[C@@H]3[C@@H]2CC[C@]2(C)[C@@H](C(=O)Cn4nccn4)C[C@@H]32)C1` [I-AA11, 1-((1S,2aS,2bR,4aR,6R,8aS,8bR,10aS)-6-hydroxy-6,10a-dimethylhexadecahydrocyclobuta[a]phenanthren-1-yl)-2-(2H-1,2,3-triazol-2-yl)ethan-1-one] fall in the same range of IC50: 1 to 10 µM for the first, 1 to 10 µM for the second.

`C[C@@]1(O)CC[C@H]2[C@H](CC[C@@H]3[C@@H]2CC[C@]2(C)[C@H](C(=O)Cn4cc(C#N)cn4)C[C@@H]32)C1` [Compound I-105, 1-(2-((1R,2aS,2bR,4aR,6R,8aS,8bR,10aS)-6-hydroxy-6,10a-dimethylhexadecahydrocyclobuta[a]phenanthren-1-yl)-2-oxoethyl)-1H-pyrazole-4-carbonitrile] and `C[C@@]1(O)CC[C@@]2(C)[C@H](CC[C@@H]3[C@@H]2CC[C@]2(C)[C@@H](C(=O)Cn4ccnn4)C[C@@H]32)C1` [Compound I-107a, 1-((1S,2aS,2bR,4aR,6R,8aS,8bS,10aS)-6-hydroxy-6,8a,10a-trimethylhexadecahydrocyclobuta[a]phenanthren-1-yl)-2-(1H-1,2,3-triazol-1-yl)ethan-1-one] fall in the same range of IC50: 1 to 10 µM for the first, 1 to 10 µM for the second.

Same assay, conditions: Table I-6; rat brain cortical membranes, 3 nM [35S]-TBPS, in the presence of 5 mM GABA

First: C[C@@]1(O)CC[C@H]2[C@H](CC[C@@H]3[C@@H]2CC[C@]2(C)[C@@H](C(=O)Nc4ccccc4)CCCC[C@@H]32)C1 [I-BA17, (2R,4aS,4bR,6aS,7S,11aS,11bR,13aR)-2-hydroxy-2,6a-dimethyl-N-phenyloctadecahydro-1H-cyclohepta[a]phenanthrene-7-carboxamide]
Second: COC[C@@H]1CCCC[C@H]2[C@@H]3CC[C@@H]4C[C@](C)(O)CC[C@@H]4[C@H]3CC[C@]12C [I-BA6a, (2R,4aS,4bR,6aS,7R,11aS,11bR,13aR)-7-(methoxymethyl)-2,6a-dimethyloctadecahydro-1H-cyclohepta[a]phenanthren-2-ol]
The IC50 of the first is lower: 0.01 to 0.1 µM for the first, 1 to 10 µM for the second.

`C[C@@]1(O)CC[C@H]2[C@H](CC[C@@H]3[C@@H]2CC[C@]2(C)C[C@H](C(=O)Cn4cc(C#N)cn4)CCC[C@@H]32)C1` [I-BC16a, 1-(2-((2R,4aS,4bR,6aR,8R,11aS,11bR,13aR)-2-hydroxy-2,6a-dimethyloctadecahydro-1H-cyclohepta[a]phenanthren-8-yl)-2-oxoethyl)-1H-pyrazole-4-carbonitrile] and `CC(=O)[C@H]1CCC[C@H]2[C@@H]3CC[C@@H]4C[C@](C)(O)CC[C@@H]4[C@H]3CC[C@]2(C)C1` [I-BC14a, 1-((2R,4aS,4bR,6aR,8S,11aS,11bR,13aR)-2-hydroxy-2,6a-dimethyloctadecahydro-1H-cyclohepta[a]phenanthren-8-yl)ethan-1-one] fall in the same range of IC50: 0.1 to 1 µM for the first, 0.1 to 1 µM for the second.
